According to EPA's ToxValDB 9.5 (doi:10.2903/j.efsa.2006.53r):
≈ marks a conversion by molar mass, not a printed value.

Columns and labels:
Apis mellifera = conditions: acute, mortality
Aphidius rhopalosiphi = conditions: not reported; mortality
Colinus virginianus = conditions: for LD50: acute, oral, mortality
Canidae = conditions: Dog Other, organ weight
Tagia sp. = conditions: acute; mortality

COCC(C)N(C(=O)CCl)c1c(C)csc1C (stereo unspecified) [Dimethenamid]
LD50 (Apis mellifera; duration: 48 hours, dermal): 94 µg/piece | LD50 (Apis mellifera; oral, unspecified): 1000 µg/piece | LEL (Aphidius rhopalosiphi): 1010 g/ha | LC50 (Daphnia magna; acute, duration: 48 hours, mortality): 12 µg/mL (≈ 43.5 µM) | NOEC (Daphnia magna; chronic/long-term, duration: 21 days): 0.68 mg/L | LD50 (Colinus virginianus; diet): 1200 mg/kg | LD50 (Colinus virginianus): 1910 mg/kg | NOAEL (Colinus virginianus; reproduction developmental): 114 mg/kg-day | NOAEL (Canidae; chronic, duration: 1 years): 2 mg/kg-day | NOAEL (Canidae; subchronic, duration: 90 days): 4.3 mg/kg-day | LC50 (Tagia sp.): 294 mg/kg | LD50 (Rattus norvegicus; acute, oral, mortality): 397 mg/kg | NOAEL (Rattus norvegicus; reproduction developmental, growth): 33.3 mg/kg-day | NOAEL (Rattus norvegicus; short-term, duration: 4 days, oral, gavage, organ weight): 25 mg/kg-day | LC50 (Oncorhynchus mykiss; acute, duration: 96 hours, mortality): 2.6 µg/mL (≈ 9.43 µM) | NOEC (Oncorhynchus mykiss; chronic/long-term, duration: 90 days, growth): 0.12 mg/L
